{
  "source": "paper PMC11435058",
  "about": "“Synthesis of New Thiazole-Privileged Chalcones as Tubulin Polymerization Inhibitors with Potential Anticancer Activities” (Pharmaceuticals, 2024)",
  "key": {"[1]": {"system": "PC-3", "assay": "NCI-60 anticancer screen (SRB; single dose and five doses)", "conditions": "Homo sapiens, PC-3, 48 h, read-out: Growth Percentage"}, "[2]": {"system": "NCI-H460", "assay": "NCI-60 anticancer screen (SRB; single dose and five doses)", "conditions": "Homo sapiens, NCI-H460, 48 h, read-out: Growth Percentage"}, "[3]": {"system": "NCI-H226", "assay": "NCI-60 anticancer screen (SRB; single dose and five doses)", "conditions": "Homo sapiens, NCI-H226, 48 h, read-out: Growth Percentage"}, "[4]": {"system": "OVCAR-3", "assay": "cells", "conditions": "Homo sapiens, OVCAR-3, 48 h, read-out: Growth Percentage"}, "[5]": {"system": "MALME-3M", "assay": "NCI-60 anticancer screen (SRB; single dose and five doses)", "conditions": "Homo sapiens, 48 h, read-out: Growth Percentage"}, "[6]": {"system": "SF-268", "assay": "NCI-60 anticancer screen (SRB; single dose and five doses)", "conditions": "Homo sapiens, SF-268, 48 h, read-out: Growth Percentage"}, "[7]": {"system": "COLO 205", "assay": "NCI-60 anticancer screen (SRB; single dose and five doses)", "conditions": "Homo sapiens, COLO 205, 48 h, read-out: Growth Percentage"}, "[8]": {"system": "BT-549", "assay": "NCI-60 anticancer screen (SRB; single dose and five doses)", "conditions": "Homo sapiens, BT-549, 48 h, read-out: Growth Percentage"}, "[9]": {"system": "SW-620", "assay": "NCI-60 anticancer screen (SRB; single dose and five doses)", "conditions": "Homo sapiens, SW-620, 48 h, read-out: Growth Percentage"}, "[10]": {"system": "MOLT-4", "assay": "NCI-60 anticancer screen (SRB; single dose and five doses)", "conditions": "Homo sapiens, MOLT-4, 48 h, read-out: Growth Percentage"}, "[11]": {"system": "SK-MEL-2", "assay": "NCI-60 anticancer screen (SRB; single dose and five doses)", "conditions": "Homo sapiens, SK-MEL-2, 48 h, read-out: Growth Percentage"}, "[12]": {"system": "SNB-75", "assay": "NCI-60 anticancer screen (SRB; single dose and five doses)", "conditions": "Homo sapiens, SNB-75, 48 h, read-out: Growth Percentage"}, "[13]": {"system": "786-0", "assay": "NCI-60 anticancer screen (SRB; single dose and five doses)", "conditions": "Homo sapiens, 786-0, 48 h, read-out: Growth Percentage"}, "[14]": {"system": "RXF 393", "assay": "NCI-60 anticancer screen (SRB; single dose and five doses)", "conditions": "Homo sapiens, RXF 393, 48 h, read-out: Growth Percentage"}, "[15]": {"system": "A498", "assay": "NCI-60 anticancer screen (SRB; single dose and five doses)", "conditions": "Homo sapiens, A498, 48 h, read-out: Growth Percentage, A498; dose of 10 μM"}, "[16]": {"system": "MDA-MB-468", "assay": "NCI-60 anticancer screen (SRB; single dose and five doses)", "type": "cell-based, human", "conditions": "Homo sapiens, 48 h; MDA-MB-468; dose of 10 μM; read-out: Growth Percentage", "outline": "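NCI panel of about 60 human tumor cell lines treated with compound at a single concentration (10μM) for 48 h. Growth measured by SRB protein staining and expressed as percent growth of treated versus untreated control cells.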"}, "[17]": {"system": "HL-60(TB)", "assay": "NCI-60 anticancer screen (SRB; single dose and five doses)", "conditions": "Homo sapiens, HL-60, 48 h, read-out: Growth Percentage"}, "[18]": {"system": "NCI-H522", "assay": "NCI-60 anticancer screen (SRB; single dose and five doses)", "conditions": "Homo sapiens, NCI-H522, 48 h, read-out: Growth Percentage"}, "[19]": {"system": "ACHN", "assay": "NCI-60 anticancer screen (SRB; single dose and five doses)", "conditions": "Homo sapiens, 48 h, read-out: Growth Percentage"}, "[20]": {"system": "M14", "assay": "NCI-60 anticancer screen (SRB; single dose and five doses)", "conditions": "Homo sapiens, M14, 48 h, read-out: Growth Percentage"}, "[21]": {"system": "A549/ATCC", "assay": "NCI-60 anticancer screen (SRB; single dose and five doses)", "conditions": "Homo sapiens, A549, 48 h, read-out: Growth Percentage"}, "[22]": {"system": "NCI-H322M", "assay": "NCI-60 anticancer screen (SRB; single dose and five doses)", "conditions": "Homo sapiens, 48 h, read-out: Growth Percentage"}, "[23]": {"system": "UACC-257", "assay": "NCI-60 anticancer screen (SRB; single dose and five doses)", "conditions": "Homo sapiens, UACC-257, 48 h, read-out: Growth Percentage"}, "[24]": {"system": "SN12C", "assay": "NCI-60 anticancer screen (SRB; single dose and five doses)", "conditions": "Homo sapiens, 48 h, read-out: Growth Percentage"}, "[25]": {"system": "HCT-15", "assay": "NCI-60 anticancer screen (SRB; single dose and five doses)", "conditions": "Homo sapiens, HCT-15, 48 h, read-out: Growth Percentage"}},
  "data": [
    {"smiles": "COc1ccc(/C=C/C(=O)c2sc(=S)[nH]c2C)cc1OC", "note": "[2o, (E)-3-(3,4-Dimethoxyphenyl)-1-(4-Methyl-2-Thioxo-2,3-Dihydrothiazol-5-yl)Prop-2-En-1-One]", "values": [
      {"measurement": "activity at 10 µM", "setting": "[1]", "value": 68.9, "unit": "%"},
      {"measurement": "activity at 10 µM", "setting": "[2]", "value": 40, "unit": "%"},
      {"measurement": "activity at 10 µM", "setting": "[3]", "value": 80.5, "unit": "%"},
      {"measurement": "activity at 10 µM", "setting": "[4]", "value": 3.22, "unit": "%"},
      {"measurement": "activity at 10 µM", "setting": "[5]", "value": 89.6, "unit": "%"},
      {"measurement": "activity at 10 µM", "setting": "[6]", "value": 67.2, "unit": "%"},
      {"measurement": "activity at 10 µM", "setting": "[7]", "value": 116, "unit": "%"},
      {"measurement": "activity at 10 µM", "setting": "[8]", "value": 18.9, "unit": "%"},
      {"measurement": "activity at 10 µM", "setting": "[9]", "value": 34.9, "unit": "%"},
      {"measurement": "activity at 10 µM", "setting": "[10]", "value": 73.8, "unit": "%"},
      {"measurement": "activity at 10 µM", "setting": "[11]", "value": 68.6, "unit": "%"},
      {"measurement": "activity at 10 µM", "setting": "[12]", "value": 58.1, "unit": "%"},
      {"measurement": "activity at 10 µM", "setting": "[13]", "value": 60, "unit": "%"},
      {"measurement": "activity at 10 µM", "setting": "[14]", "value": 48.1, "unit": "%"},
      {"measurement": "activity at 10 µM", "setting": "[15]", "value": 126, "unit": "%"},
      {"measurement": "activity at 10 µM", "setting": "[16]", "value": -0.42, "unit": "%"},
      {"measurement": "activity at 10 µM", "setting": "[17]", "value": 35.6, "unit": "%"},
      {"measurement": "activity at 10 µM", "setting": "[18]", "value": 56.8, "unit": "%"},
      {"measurement": "activity at 10 µM", "setting": "[19]", "value": 64.9, "unit": "%"},
      {"measurement": "activity at 10 µM", "setting": "[20]", "value": 82.2, "unit": "%"},
      {"measurement": "activity at 10 µM", "setting": "[21]", "value": 64.6, "unit": "%"},
      {"measurement": "activity at 10 µM", "setting": "[22]", "value": 63.4, "unit": "%"},
      {"measurement": "activity at 10 µM", "setting": "[23]", "value": 71.4, "unit": "%"},
      {"measurement": "activity at 10 µM", "setting": "[24]", "value": 45.4, "unit": "%"},
      {"measurement": "activity at 10 µM", "setting": "[25]", "value": 31.3, "unit": "%"}
    ]}
  ]
}
